The record followed here is patent publication US9399635B2, “Pyrazole derivative” (GREEN TECH CO., LTD., priority 2011, dated 2016).

Like-named read-outs stand apart in the source and are kept apart here.

One data set deals with T1, Aβ 1-42 (Homo sapiens, UniProt P05067).
T1 construct: Aβ 1-42 (Peptide Institute, Inc.) was dissolved in 0.3% ammonia water; purchased Peptide Institute, Inc
Briefly: Determination of Aβ aggregation inhibitory activity (thioflavin T fluorescence). It counts as biochemical. The conditions noted are these: Aβ 1-42, 37° C. for 24 hours, thioflavin T; read-out: IC50 (μM) Test example 3 (Aβ aggregation inhibitory activity). Here is the method: Pharmacological test example 3: Determination of Aβ aggregation inhibitory activity
Aβ 1-42 (Peptide Institute, Inc.) was dissolved in 0.3% ammonia water so that the concentration would be 0.5 mM and then diluted with PBS to 20 μM. The test compounds were prepared using DMSO at 100-fold of their final concentrations and adjusted so that the DMSO concentration would be 2%. The Aβ solution and each of the test compound solutions were mixed at an equivalent ratio and the mixtures were incubated at 37° C. for 24 hours. To each of the mixtures, an equal volume of a thioflavin T solution adjusted with a 100 mM Tris-glycine buffer (pH 8.5) to 6 μM was added. The fluorescence intensity was measured with a fluorescence plate reader (excitation wavelength: 440 nm; emission wavelength: 480 nm).
The final concentration of each compound at the time of measurement was set at 0.1, 0.3, 1, 3, and 10 μM. The sample to which only DMSO was added was used as a negative control and its fluorescence intensity was taken as 0% inhibitory activity.

The nature of data set [1]: Evaluation of in vivo pharmacokinetics (blood and brain concentrations, LC-MS/MS). The conditions noted are these: SD rats. The procedure:
Pharmacological test example 4: Evaluation of in vivo pharmacokinetics
To SD rats (male, 7 weeks old), the test compound was orally administered (p. o.) at an amount of 50 mg/kg bw or intravenously administered (i.v.) at an amount of 1 mg/kg bw and the concentrations in the blood and brain were measured up to 3 hours. The administration vehicle was an 80% PEG 400 aqueous solution. The blood was collected under isoflurane inhalational anesthesia and the brain was harvested after the rats were sacrificed. The plasma was separated from the blood. The brain was homogenized after addition of a three-fold volume of PBS and then methanol was added thereto. Thus the prepared test samples were subjected to measurement. The measurement was performed by LC-MS/MS (Applied Biosystems and Waters).
The blood concentration changes of the compounds of Example 2 and Example 2 (2) ((1E,6E)-1-(1H-indol-6-yl)-7-[2-methoxy-4-(2-pyridylmethoxy)phenyl]hepta-1,6-diene-3,5-dione) after oral administration (p.o.) thereof are shown in FIG. 2. The brain concentration changes of the compounds after intravenous administration (i.v.) and oral administration (p.o.) thereof are shown in Table 2.

Data set [2] addresses T2, recombinant human β-secretase (Homo sapiens, UniProt P56817).
T2 construct: purchased Invitrogen
Nature of the data set: Determination of β-secretase inhibitory activity (BACE-1 FRET assay Kit). It counts as biochemical. The conditions noted are these: recombinant human β-secretase, fluorescent substrate peptide, 1 hour; read-out: IC50 (μM) Test example 2 (β-secretase inhibitory activity). The procedure:
Pharmacological Test Example 2: Determination of β-Secretase Inhibitory Activity
The β-secretase inhibitory activity was measured with BACE-1 FRET assay Kit (Invitrogen). The test compounds were prepared using DMSO at 30-fold of their final concentrations and dissolved so that the DMSO concentration would be 10%. To each of the solutions, an equal volume of a recombinant human β-secretase (1 U/mL) dissolved in the assay buffer and an equal volume of fluorescent substrate peptide (2.5 nM) were added and the solutions were left to stand for 1 hour. The fluorescence intensity was measured with a fluorescence plate reader (excitation wavelength: 545 nm; emission wavelength: 590 nm).
The final concentration of each compound at the time of measurement was set at 0.1, 0.3, 1, 3, and 10 μM, at 0.3, 1, 3, 10, and 30 μM, or at 1, 3, 10, 30, and 100 μM.

T2 sequence (P56817 46-501): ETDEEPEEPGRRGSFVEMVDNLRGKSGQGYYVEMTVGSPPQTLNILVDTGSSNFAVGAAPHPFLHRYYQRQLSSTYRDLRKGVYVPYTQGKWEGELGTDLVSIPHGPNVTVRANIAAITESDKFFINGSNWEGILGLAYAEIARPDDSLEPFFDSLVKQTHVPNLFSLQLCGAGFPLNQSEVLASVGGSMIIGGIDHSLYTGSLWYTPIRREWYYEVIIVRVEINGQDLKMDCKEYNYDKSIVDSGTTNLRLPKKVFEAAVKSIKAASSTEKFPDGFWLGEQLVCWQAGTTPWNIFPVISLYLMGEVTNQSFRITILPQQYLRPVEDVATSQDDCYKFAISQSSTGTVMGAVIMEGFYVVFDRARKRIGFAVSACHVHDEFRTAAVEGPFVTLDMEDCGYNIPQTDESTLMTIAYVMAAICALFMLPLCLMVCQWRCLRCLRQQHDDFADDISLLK
T1 sequence (P05067 672-713): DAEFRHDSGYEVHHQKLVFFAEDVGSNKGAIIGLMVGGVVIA

`COc1cc(OCc2ccccn2)ccc1/C=C/c1cc(/C=C/c2ccc3cc[nH]c3c2)[nH]n1` [Example 2, 3-[(1E)-2-(1H-indol-6-yl)ethenyl]-5-[(1E)-2-[2-methoxy-4-(2-pyridylmethoxy)phenyl]ethenyl]-1H-pyrazole]: the IC50 (commonly the concentration needed to halve the response being measured) is 1.5 µM on Aβ 1-42 and 3 µM in data set [2]. The “blood and brain concentrations compared with the compound of Example 2 (2)” value in data set [1] (p.o. 50 mg/kg bw or i.v. 1 mg/kg bw (FIG. 2, Table 2)) was “higher blood and brain concentrations”. Further, the concentration at 5 min in data set [1] (male, rat, intravenous 1 mg/kg bw, 5 min, brain, read-out: brain concentration i.v. 5 min) came to 48.7 ng/mL. In addition, the concentration at 180 min in data set [1] (male, rat, intravenous 1 mg/kg bw, brain, read-out: brain concentration i.v. 180 min) came to 17.5 ng/mL; in data set [1] (male, rat, oral 50 mg/kg bw, brain, read-out: brain concentration p.o. 180 min), 68.9 ± 39.4 ng/mL. The concentration at 60 min in data set [1] (male, rat, oral 50 mg/kg bw, 60 min, brain, read-out: brain concentration p.o. 60 min) was 8.54 ± 2.93 ng/mL.
